Results as given in ChEMBL document CHEMBL1157316, “Resin glycosides from the flowers of Ipomoea murucoides” (2006).
In brackets after ≈: the same amount, converted by molar mass.

Columns and labels:
HEp-2 = assay: Cytotoxicity against human Hep2 cells after 72 hrs by SRB method; type: functional; conditions: HEp-2, 72 h, read-out: ED50 (the source's name)
KB = assay: Cytotoxicity against human KB cells after 72 hrs by SRB method; type: functional; conditions: read-out: ED50 (the source's name)

SMILES	EC50 (HEp-2) [mg/L]	EC50 (KB) [mg/L]
CCCCC[C@H]1CCCCCCCCCC(=O)O[C@H]2[C@H](O[C@H]3[C@H](O1)O[C@H](C)[C@H](O)[C@@H]3O)O[C@@H](C)[C@H](O[C@@H]1O[C@@H](C)[C@H](O[C@@H]3O[C@@H](C)[C@H](OC(=O)C(C)C)[C@@H](O)[C@H]3O)[C@@H](O[C@@H]3O[C@@H](C)[C@H](O)[C@@H](O)[C@H]3O)[C@H]1OC(=O)[C@@H](C)CC)[C@H]2O [MURUCOIDIN II]	> 20	
CCCCC[C@H]1CCCCCCCCCC(=O)O[C@H]2[C@H](O[C@H]3[C@H](O1)O[C@H](C)[C@H](O)[C@@H]3O)O[C@@H](C)[C@H](O[C@@H]1O[C@@H](C)[C@H](O[C@@H]3O[C@@H](C)[C@H](OC(=O)[C@@H](C)CC)[C@@H](O)[C@H]3O)[C@@H](O[C@@H]3O[C@@H](C)[C@H](O)[C@@H](O)[C@H]3O)[C@H]1OC(=O)[C@@H](C)CC)[C@H]2O [MURUCOIDIN III]	> 20	
CCCCC[C@H]1CCCCCCCCCC(=O)O[C@H]2[C@H](O[C@H]3[C@H](O1)O[C@H](C)[C@H](O)[C@@H]3O)O[C@@H](C)[C@H](O[C@@H]1O[C@@H](C)[C@H](O[C@@H]3O[C@@H](C)[C@H](O)[C@@H](O)[C@H]3O)[C@@H](O[C@@H]3O[C@@H](C)[C@H](O)[C@@H](O)[C@H]3O)[C@H]1OC(=O)[C@@H](C)CC)[C@H]2O [MURUCOIDIN I]	> 20	
CCCCC[C@H]1CCCCCCCCCC(=O)O[C@H]2[C@@H](O)[C@H](O[C@H]3[C@H](O1)O[C@H](C)[C@H](O)[C@@H]3O)O[C@@H](C)[C@@H]2O[C@@H]1O[C@@H](C)[C@H](O[C@@H]2O[C@@H](C)[C@H](OC(=O)[C@@H](C)CC)[C@@H](O)[C@H]2O)[C@@H](O[C@@H]2O[C@H](CO)[C@@H](O)[C@H](O)[C@H]2O)[C@H]1OC(=O)[C@@H](C)CC [MURUCOIDIN V]	> 20	
CC[C@]1(O)C[C@@H]2CN(CCc3c([nH]c4ccccc34)[C@@](C(=O)OC)(c3cc4c(cc3OC)N(C)[C@H]3[C@@](O)(C(=O)OC)[C@H](OC(C)=O)[C@]5(CC)C=CCN6CC[C@]43[C@@H]65)C2)C1 [VINBLASTINE]	0.001 (≈ 0.00123 µM)	0.05 (≈ 0.0617 µM)
CCCCC[C@H]1CCCCCCCCCC(=O)O[C@H]2[C@H](O[C@H]3[C@H](O1)O[C@H](C)[C@H](O)[C@@H]3O)O[C@@H](C)[C@H](O[C@@H]1O[C@@H](C)[C@H](O[C@@H]3O[C@@H](C)[C@H](OC(=O)[C@@H](C)CC)[C@@H](O)[C@H]3O)[C@@H](O[C@@H]3O[C@H](CO)[C@@H](O)[C@H](O)[C@H]3O)[C@H]1OC(=O)[C@@H](C)CC)[C@H]2O [MURUCOIDIN IV]	4 (≈ 3.42 µM)	
CCCCC[C@H]1CCCCCCCCCC(=O)O[C@H]2[C@@H](O)[C@H](O[C@H]3[C@H](O1)O[C@H](C)[C@H](O)[C@@H]3O)O[C@@H](C)[C@@H]2O[C@@H]1O[C@@H](C)[C@H](O[C@@H]2O[C@@H](C)[C@H](OC(=O)[C@@H](C)CC)[C@@H](O)[C@H]2O)[C@@H](O[C@@H]2O[C@@H](C)[C@H](O)[C@@H](O)[C@H]2O)[C@H]1OC(=O)[C@@H](C)CC [STOLONIFERIN I]	> 20	
